Measurements published in ChEMBL document CHEMBL1201862, “PubChem BioAssay data set” (2004).
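In this assay, cells in 96-well plates receive the compound at five concentrations for 48 hours. Endpoints are linearly interpolated between the surrounding concentrations. Abbreviation: GI50, concentration required for 50% inhibition of growth.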 Calls of active or inactive are those of the source. No stated cut-off is given here; in the data, active = GI50 up to about 1.1 µM and inactive = higher.

Legend:
Assay in all cases: inhibition of tumour cell growth, NCI panel, 48 h
LXFL 529 = tested on: LXFL 529
SK-OV-3 = tested on: SK-OV-3
DLD-1 = tested on: DLD-1
SK-MEL-2 = tested on: SK-MEL-2
K562 = tested on: K562
U-251 = tested on: U-251
SF-268 = tested on: SF-268
NCI-H460 = tested on: NCI-H460
M14 = tested on: M14
SF-539 = tested on: SF-539
CCRF-CEM = tested on: CCRF-CEM
HCT-15 = tested on: HCT-15
RPMI-8226 = tested on: RPMI-8226
COLO 205 = tested on: COLO 205
UO-31 = tested on: UO-31
SW-620 = tested on: SW-620
NCI-H522 = tested on: NCI-H522
CAKI-1 = tested on: CAKI-1
RXF 393 = tested on: RXF 393
A549 = tested on: A549
LOX IMVI = tested on: LOX IMVI
SK-MEL-5 = tested on: SK-MEL-5
HOP-18 = tested on: HOP-18
UACC-257 = tested on: UACC-257
SN12C = tested on: SN12C
OVCAR-5 = tested on: OVCAR-5
Malme-3M = tested on: Malme-3M
OVCAR-4 = tested on: OVCAR-4
M19-MEL = tested on: M19-MEL
DMS-273 = tested on: DMS-273
ACHN = tested on: ACHN
OVCAR-8 = tested on: OVCAR-8
SNB-75 = tested on: SNB-75
KM12 = tested on: KM12
UACC-62 = tested on: UACC-62
HL-60 = tested on: HL-60
HCT-116 = tested on: HCT-116
HT-29 = tested on: HT-29
DMS-114 = tested on: DMS-114
NCI-H23 = tested on: NCI-H23
SK-MEL-28 = tested on: SK-MEL-28
NCI-H226 = tested on: NCI-H226
TK-10 = tested on: TK-10
MOLT-4 = tested on: MOLT-4
HOP-62 = tested on: HOP-62
SF-295 = tested on: SF-295
IGROV-1 = tested on: IGROV-1
786-0 = tested on: 786-0
SR = tested on: SR
SNB-78 = tested on: SNB-78
SNB-19 = tested on: SNB-19
KM-20L2 = tested on: KM-20L2
EKVX = tested on: EKVX
HOP-92 = tested on: HOP-92
OVCAR-3 = tested on: OVCAR-3

[N-]=[N+]=Nc1cc(=O)n(-c2ccccc2)c2ccccc12 was tested, and the GI50 (LXFL 529) was > 100 µM (inactive), the GI50 (SK-OV-3) was > 100 µM (inactive) and the GI50 (DLD-1) was > 100 µM (inactive). The GI50 (SK-MEL-2) was > 100 µM (inactive), the GI50 (K562) was > 100 µM (inactive) and the GI50 (U-251) was > 100 µM (inactive). The GI50 (SF-268) was > 100 µM (inactive), the GI50 (NCI-H460) was > 100 µM (inactive) and the GI50 (M14) was > 100 µM (inactive). For the same molecule, the GI50 (SF-539) was > 100 µM (inactive), the GI50 (CCRF-CEM) was > 100 µM (inactive) and the GI50 (HCT-15) was greater than 100 µM. The GI50 (RPMI-8226) was > 100 µM (inactive), the GI50 (COLO 205) was > 100 µM (inactive) and the GI50 (UO-31) was > 100 µM (inactive). The GI50 (SW-620) was > 100 µM (inactive), the GI50 (NCI-H522) was > 100 µM (inactive) and the GI50 (CAKI-1) was > 100 µM (inactive). For the same molecule, the GI50 (RXF 393) was 63.1 µM (inactive), the GI50 (A549) was > 100 µM (inactive) and the GI50 (LOX IMVI) was > 100 µM (inactive). The GI50 (SK-MEL-5) was > 100 µM (inactive), the GI50 (HOP-18) was > 100 µM (inactive) and the GI50 (UACC-257) was > 100 µM (inactive). The GI50 (SN12C) was > 100 µM (inactive), the GI50 (OVCAR-5) was > 100 µM (inactive) and the GI50 (Malme-3M) was > 100 µM (inactive). The GI50 (OVCAR-4) was > 100 µM (inactive), the GI50 (M19-MEL) was > 100 µM (inactive) and the GI50 (DMS-273) was > 100 µM (inactive). For the same molecule, the GI50 (ACHN) was > 100 µM (inactive), the GI50 (OVCAR-8) was > 100 µM (inactive) and the GI50 (SNB-75) was 70.8 µM (inactive). For the same molecule, the GI50 (KM12) was > 100 µM (inactive), the GI50 (UACC-62) was > 100 µM (inactive) and the GI50 (HL-60) was > 100 µM (inactive). The GI50 (HCT-116) was > 100 µM (inactive), the GI50 (HT-29) was > 100 µM (inactive) and the GI50 (DMS-114) was > 100 µM (inactive). For the same molecule, the GI50 (NCI-H23) was > 100 µM (inactive), the GI50 (SK-MEL-28) was > 100 µM (inactive) and the GI50 (NCI-H226) was > 100 µM (inactive). For the same molecule, the GI50 (TK-10) was > 100 µM (inactive), the GI50 (MOLT-4) was > 100 µM (inactive) and the GI50 (HOP-62) was > 100 µM (inactive). The GI50 (SF-295) was > 100 µM (inactive), the GI50 (IGROV-1) was > 100 µM (inactive) and the GI50 (786-0) was > 100 µM (inactive). For the same molecule, the GI50 (SR) was > 100 µM (inactive).
O=C(O)C1=NN=C(C(=O)O)NN1 was tested, and the GI50 (SNB-78) was > 100 µM (inactive), the GI50 (LXFL 529) was > 100 µM (inactive) and the GI50 (SK-OV-3) was 37.9 µM (inactive). The GI50 (DLD-1) was > 100 µM (inactive), the GI50 (SK-MEL-2) was > 100 µM (inactive) and the GI50 (K562) was 72.9 µM (inactive). The GI50 (SNB-19) was > 100 µM (inactive), the GI50 (U-251) was > 100 µM (inactive) and the GI50 (SF-268) was > 100 µM (inactive). The GI50 (NCI-H460) was 79.4 µM (inactive), the GI50 (KM-20L2) was > 100 µM (inactive) and the GI50 (M14) was > 100 µM (inactive). The GI50 (SF-539) was > 100 µM (inactive), the GI50 (CCRF-CEM) was > 100 µM (inactive) and the GI50 (HCT-15) was greater than 100 µM. For the same molecule, the GI50 (RPMI-8226) was 43.9 µM (inactive), the GI50 (COLO 205) was > 100 µM (inactive) and the GI50 (UO-31) was > 100 µM (inactive). For the same molecule, the GI50 (SW-620) was 38.6 µM (inactive), the GI50 (NCI-H522) was > 100 µM (inactive) and the GI50 (CAKI-1) was > 100 µM (inactive). The GI50 (RXF 393) was > 100 µM (inactive), the GI50 (A549) was > 100 µM (inactive) and the GI50 (LOX IMVI) was > 100 µM (inactive). The GI50 (SK-MEL-5) was > 100 µM (inactive), the GI50 (HOP-18) was > 100 µM (inactive) and the GI50 (UACC-257) was > 100 µM (inactive). For the same molecule, the GI50 (SN12C) was > 100 µM (inactive), the GI50 (OVCAR-5) was > 100 µM (inactive) and the GI50 (Malme-3M) was > 100 µM (inactive). The GI50 (OVCAR-4) was > 100 µM (inactive), the GI50 (M19-MEL) was > 100 µM (inactive) and the GI50 (DMS-273) was > 100 µM (inactive). For the same molecule, the GI50 (EKVX) was > 100 µM (inactive), the GI50 (ACHN) was > 100 µM (inactive) and the GI50 (OVCAR-8) was > 100 µM (inactive). The GI50 (SNB-75) was > 100 µM (inactive), the GI50 (KM12) was > 100 µM (inactive) and the GI50 (UACC-62) was > 100 µM (inactive). For the same molecule, the GI50 (HL-60) was > 100 µM (inactive), the GI50 (HCT-116) was > 100 µM (inactive) and the GI50 (HT-29) was > 100 µM (inactive). For the same molecule, the GI50 (NCI-H23) was > 100 µM (inactive), the GI50 (SK-MEL-28) was > 100 µM (inactive) and the GI50 (NCI-H226) was > 100 µM (inactive). The GI50 (TK-10) was > 100 µM (inactive), the GI50 (MOLT-4) was > 100 µM (inactive) and the GI50 (HOP-92) was > 100 µM (inactive). The GI50 (SF-295) was > 100 µM (inactive), the GI50 (IGROV-1) was > 100 µM (inactive) and the GI50 (786-0) was > 100 µM (inactive). The GI50 (OVCAR-3) was > 100 µM (inactive).
